The record followed here is US5760036A, “Aminediol protease inhibitors” (E. R. Squibb & Sons, Inc., priority 1995, dated 1998).

Usually inhibition stands for the drop in the measured response relative to a control, in per cent.

In the first test the target is T1, HIV protease (Human immunodeficiency virus type 1 group M subtype B, UniProt P04585).
T1 construct: and purified protease
The test is described as follows: HIV Protease Assay. In kind it is biochemical. To be noted: 10 μM inhibitor, 4% DMSO, 450 μM substrate, pH 5.5, 30 minutes at 37° C., RP-HPLC. An outline of the steps:
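At a single final concentration of 10 μM (4% DMSO), inhibitors were added to a 30-minute, 37° C reaction of purified enzyme with 450 μM H2N-Val-Ser-Gln-Asn-(β-naphthyl-alanine)-Pro-Val-Ile-OH at pH 5.5 (sodium acetate, BSA). Hydrolysis was quantified by reverse-phase HPLC with 220 nm detection after acid quench.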
`CC(C)(C)OC(=O)N[C@@H](Cc1ccccc1)[C@H](O)CNC[C@@H](O)[C@H](Cc1ccccc1)NC(=O)OC1c2ccccc2CC1O` (stereo partly drawn) [Compound 215, [1S-(1R*,2S*)(trans)]-[Iminobis[2-hydroxy-1-(phenylmethyl)-3,1-propanediyl)]biscarbamic acid, 1,1-dimethylethyl 2,3-dihydro-2-hydroxy-1H-inden-1-yl ester]: the “HIV Protease % Inhibition at 10 μM” value was 66%.

Staying with this test, now noted: pH 5.5, 10 μM inhibitor, 4% DMSO, 450 μM substrate, pH 5.5, 30 minutes at 37° C., RP-HPLC; read-out: HIV Protease % Inhibition at 10 μM.
For the molecule `CC(C)C[C@H](NC(=O)OC(C)(C)C)C(O)CN(Cc1ccccc1)CC(O)[C@H](CC(C)C)NC(=O)OC(C)(C)C` (stereo partly drawn) [Compound 196, (3S,3S')-[[(Phenylmethyl)nitrilo]-bis(2-hydroxy-5-methyl-3,1-hexandiyl)]-biscarbamic acid, bis(1,1-dimethylethyl)ester], the inhibition at 10 µM came to 6%.

As to `CC(C)(C)OC(=O)N[C@@H](Cc1ccccc1)[C@H](O)CNC[C@@H](O)[C@H](Cc1ccccc1)NC(=O)OC[C@H](O)CO` [Compound 231, [1S-(1R*,2S*),(S*)]-[Iminobis[2-hydroxy-1-(phenylmethyl)-3,1-propanediyl]]biscarbamic acid, 2,3-dihydroxypropyl 1,1-dimethylethyl ester], the inhibition at 10 µM came out at 83%.

Regarding `CC(C)(C)OC(=O)N[C@@H](Cc1ccccc1)[C@H](O)CNC[C@@H](O)[C@H](Cc1ccccc1)NC(=O)C1c2ccccc2CC1O` (stereo partly drawn) [Compound 237, [1S-[1R*,2S*[2S*,3R*(trans)]]]-[3-[[3-[[(2,3-Dihydro-2-hydroxy-1H-inden-1-yl)carbonyl]amino]-2-hydroxy-4-phenylbutyl]amino]-2-hydroxy-1-(phenylmethyl)propyl]carbamic acid, 1,1-dimethylethyl ester], the inhibition at 10 µM is 54%.

`CC(C)(C)OC(=O)N[C@@H](Cc1ccccc1)[C@H](O)CNC[C@@H](O)[C@H](Cc1ccccc1)NC(=O)OC(C)(CO)CO` [Compound 251, [R-(R*,S*)]-[Iminobis[2-hydroxy-1-(phenylmethyl)-3,1-propanediyl)]biscarbamic acid, 1,1-bis(hydroxymethyl)ethyl 1,1-dimethylethyl ester]: the inhibition at 10 µM was determined as 98%.

As to `CC(C)(C)OC(=O)N[C@@H](Cc1ccccc1)[C@H](O)CNC[C@@H](O)[C@H](Cc1ccccc1)NC(=O)OCc1nc(-c2ccccc2)c[nH]1` [Compound 253, [R-(R*,S*)]-[Iminobis[2-hydroxy-1-(phenylmethyl)-3,1-propanediyl)]biscarbamic acid, 1,1-dimethylethyl(4-phenyl-1H-imidazol-2-yl)methyl ester], the inhibition at 10 µM was found to be 85%.

Take `CC(C)(C)OC(=O)N[C@@H](Cc1ccccc1)[C@H](O)CNC[C@@H](O)[C@H](Cc1ccccc1)NC(=O)CC(O)CO` (stereo partly drawn) [Compound 255, [1S-[1R*,2S*(2S*,3R*)]]-[3-[[3-[(3,4-Dihydroxy-1-oxo-butyl)amino]-2-hydroxy-4-phenylbutyl]amino]-2-hydroxy-1-(phenylmethyl)propyl]carbamic acid, 1,1-dimethylethyl ester]: the inhibition at 10 µM amounted to 86%.

As for `CC(C)(C)OC(=O)N[C@@H](Cc1ccccc1)[C@H](O)CNC[C@@H](O)[C@H](Cc1ccccc1)NC(=O)OCc1ncc[nH]1` [Compound 268, [R-(R*,S*)]-[Iminobis[2-hydroxy-1-(phenylmethyl)-3,1-propanediyl)]biscarbamic acid, (1H-imidazol-2-yl)-methyl 1,1-dimethylethyl ester], the inhibition at 10 µM turned out to be 94%.

With `CC(C)(C)OC(=O)N[C@@H](Cc1ccccc1)[C@H](O)CNC[C@@H](O)[C@H](Cc1ccccc1)NC(=O)C(C)(C)C` [Compound 269, [1S-[1R*,2S*(2S*,3R*)]]-[3-[[3-[(2,2-Dimethyl-1-oxo-propyl)amino]-2-hydroxy-4-phenylbutyl]amino]-2-hydroxy-1-(phenylmethyl)propyl]carbamic acid, 1,1-dimethylethyl ester], the inhibition at 10 µM came out at 61%.

For `CC(C)(C)OC(=O)N[C@@H](Cc1ccccc1)[C@H](O)CNC[C@@H](O)[C@H](Cc1ccccc1)NC(=O)C1c2ccccc2CN1C=O` (stereo partly drawn) [Compound 270, [1S-[1R*,2S*(2S*,3R*)]]-[3-[[3-[[(2-Formyl-2,3-dihydro-1H-isoindol-1-yl)carbonyl]amino]-2-hydroxy-4-phenylbutyl]amino]-2-hydroxy-1-(phenylmethyl)-propyl]carbamic acid 1,1-dimethylethyl ester], the inhibition at 10 µM was 27%.

As for `CC(C)(C)OC(=O)N[C@@H](Cc1ccccc1)[C@H](O)CNC[C@@H](O)[C@H](Cc1ccccc1)NC(=O)OC(CO)c1cccnc1` (stereo partly drawn) [Compound 277, [R-(R*,S*)]-[Iminobis[2-hydroxy-1-(phenylmethyl)-3,1-propanediyl)]biscarbamic acid, 1,1-dimethylethyl-2-hydroxy-1-(3-pyridinyl)ethyl ester], the inhibition at 10 µM is 67%.

As to `CC(C)(C)OC(=O)N[C@@H](Cc1ccccc1)[C@H](O)CNC[C@@H](O)[C@H](Cc1ccccc1)NC(=O)C(C)(C)CO` [Compound 279, [1S-[1R*,2S*(2S*,3R*)]]-[2-Hydroxy-3-[[2-hydroxy-3-[[2-(hydroxymethyl)-2-methyl-1-oxopropyl]amino]-4-phenylbutyl]amino]-1-(phenylmethyl)propyl]carbamic acid, 1,1-dimethylethyl ester], the inhibition at 10 µM was found to be 54%.

Regarding `CNC(=O)OC(C(=O)N[C@@H](Cc1ccccc1)[C@H](O)CNC[C@@H](O)[C@H](Cc1ccccc1)NC(=O)OC(C)(C)C)C(C)(C)C` (stereo partly drawn) [Compound 287, [1S-[1R*,2S*(2S*,3R*)]]-[3-[[3-[[3,3-Dimethyl-2-[[(methylamino)carbonyl]oxy]-1-oxobutyl]amino]-2-hydroxy-4-phenylbutyl]amino]-2-hydroxy-1-(phenylmethyl)propyl]-carbamic acid, 1,1-dimethylethyl ester], the inhibition at 10 µM worked out at 89%.

As for `CC(C)(C)OC(=O)N[C@@H](Cc1ccccc1)[C@H](O)CNC[C@@H](O)[C@H](Cc1ccccc1)NC(=O)OCc1nc2ccccc2[nH]1` [Compound 289, [R-(R*,S*)]-[Iminobis[2-hydroxy-1-(phenylmethyl)-3,1-propanediyl)]biscarbamic acid, (1H-benzimidazol-2-yl)methyl 1,1-dimethylethyl ester], the inhibition at 10 µM came to 53%.

Take `CC(C)(C)OC(=O)N[C@@H](Cc1ccccc1)[C@H](O)CNC[C@@H](O)[C@H](Cc1ccccc1)NC(=O)C(C)(C)CCO` [Compound 291, [1S-[1R*,2S*(2S*,3R*)]]-[2-Hydroxy-3-[[2-hydroxy-3-[(4-hydroxy-2,2-dimethyl-1-oxobutyl)amino]-4-phenylbutyl]amino]-1-(phenylmethyl)propyl]carbamic acid, 1,1-dimethylethyl ester]: the inhibition at 10 µM amounted to 73%.

Take `CC(C)(C)OC(=O)N[C@@H](Cc1ccccc1)[C@H](O)CNC[C@@H](O)[C@H](Cc1ccccc1)NC(=O)C(=NO)C(C)(C)C` [Compound 295, [1S-[1R*,2S*(2S*,3R*)]]-[2-Hydroxy-3-[[2-hydroxy-3-[[2-(hydroxyimino)-3,3-dimethyl-1-oxobutyl]amino]-4-phenylbutyl]amino]-1-(phenylmethyl)propyl]carbamic acid, 1,1-dimethylethyl ester]: the inhibition at 10 µM worked out at 82%.

Regarding `CON=C(C(=O)N[C@@H](Cc1ccccc1)[C@H](O)CNC[C@@H](O)[C@H](Cc1ccccc1)NC(=O)OC(C)(C)C)C(C)(C)C` [Compound 296, [1S-[1R*,2S*(2S*,3R*)]]-[2-Hydroxy-3-[[2-hydroxy-3-[[2-(methoxyimino)-3,3-dimethyl-1-oxobutyl]amino]-4-phenylbutyl]amino]-1-(phenylmethyl)propyl]carbamic acid, 1,1-dimethylethyl ester], the inhibition at 10 µM was found to be 37%.

Consider `CC(C)(C)OC(=O)N[C@@H](Cc1ccccc1)[C@H](O)CNC[C@@H](O)[C@H](Cc1ccccc1)NC(=O)O[C@@H]1COC[C@H]1O` [Compound 317, [1S-(1R*,2S*), (3R-trans)l-[Iminobis[2-hydroxy-1-(phenylmethyl)-3,1-propanediyl]]bis[carbamic acid], 4-hydroxy-3-tetrahydrofuranyl 1,1-dimethylethyl ester], for which the inhibition at 10 µM came to 85%.

On to `CC(C)(C)OC(=O)N[C@@H](Cc1ccccc1)[C@H](O)CNC[C@@H](O)[C@H](Cc1ccccc1)NC(=O)C(N)C(F)(F)F` (stereo partly drawn) [Compound 329, [1S-[1R*,2S*(2S*,3R*)]]-[3-[[3-[[(1-Amino-2,2,2-trifluoroethyl)carbonyl]amino]-2-hydroxy-4-phenylbutyl]amino]-2-hydroxy-1-(phenylmethyl)propyl]carbamic acid, 1,1-dimethylethyl ester], for which the inhibition at 10 µM worked out at 84%.

Consider `CC(C)(C)OC(=O)N[C@@H](Cc1ccccc1)[C@H](O)CNC[C@@H](O)[C@H](Cc1ccccc1)NC(=O)[C@@H](O)C(C)(C)C` [Compound 335, [1S-[1R*,2S*[2S*,3R*(R*)]]]-[3-[[3-[(2-Hydroxy-3,3-dimethyl-1-oxobutyl)amino]-2-hydroxy-4-phenylbutyl]amino]-2-hydroxy-1-(phenylmethyl)propyl]carbamic acid, 1,1-dimethylethyl ester], for which the inhibition at 10 µM worked out at 89%.

On to `CC(C)(C)OC(=O)N[C@@H](Cc1ccccc1)[C@H](O)CNC[C@@H](O)[C@H](Cc1ccccc1OCc1ccccc1)NC(=O)OC(C)(C)C` [Compound 348, [1S-[1R*,2S*(2S*,3R*)]]-[3-[[(3-[[(1,1-Dimethylethoxy)carbonyl]amino]-2-hydroxy-4-[2-(phenylmethoxy)phenyl]butyl]amino]-2-hydroxy-1-(phenylmethyl)propyl]carbamic acid, 1,1-dimethylethyl ester], for which the inhibition at 10 µM worked out at 99%.

The same test, now with this note: pH 5.5, read-out: HIV Protease % Inhibition at 10 μM.
`CC(C)(C)OC(=O)N[C@@H](Cc1ccccc1)[C@H](O)CNC[C@@H](O)[C@H](Cc1ccccc1)NC(=O)OC(C)(C)CN` [Compound 216, [1S-(1R*,2S*)]-[Iminobis[2-hydroxy-1-(phenylmethyl)-3,1-propanediyl]]biscarbamic acid. 2-amino-1,1-dimethylethyl-1,1-dimethylethyl ester]: the inhibition at 10 µM was 49%.
